In patent US20090181920A1, “INTRATHECAL TREATMENT OF NEUROPATHIC PAIN WITH A2AR AGONISTS” (PGXHEALTH, LLC, priority 2008, published 2009):

Columns and labels:
CCI-induced allodynia [1] = experiment: Chronic constriction injury (CCI) neuropathic pain model, von Frey testing after a single intrathecal injection; type: in vivo, Sprague Dawley rats; conditions: for Effect on CCI-induced allodynia relative to ATL313 and CGS21680: tested at 1 uM
Method: (§1) Saline is used as the vehicle in the experiments. All A2A agonists are dissolved in 100% DMSO to a 10 mM concentration. These are then diluted 1:10,000 with saline. The total volume of injection for all groups is 5 μL, which consists of a 1 μL air bubble, 1 μL of agonist/vehicle, 1 μL air bubble, and finally a 2 μL flush of saline. The intermediate air bubble is used to separate drug/vehicle and the flush.
Sprague Dawley rats underwent chronic constriction injury (CCI) of the sciatic nerve or sham surgery. After pre-surgery baseline testing (Day 0=D0), rats received chronic constriction injury of the left sciatic nerve at mid-thigh level to produce neuropathic pain (chronic constriction injury model: CCI). This is seen by the fall in pain threshold between days 4 and 11 (D4, D11) after surgery relative to D0. Once CCI-induced allodynia was stable as tested by von Frey filaments, the material to be studied (e.g., vehicle or A2AR agonists CGS21680 or ATL313) was injected intrathecally. After injection, behavioral testing occurred at 4, 24, and 72 h and then weekly for 6 weeks.
The results of the studies are shown in FIG. 1 with the translation of Y-axis units as follows: 5=10 grams, 4.75=5.62 grams, 4.5=3.16 grams, 4.25=[…], 4=1 gram, 3.75=0.56 grams, 3.5=0.32 grams.
Although the CCI surgery is unilateral (left sciatic nerve), the allodynia is present bilaterally. In addition, the reversal of allodynia by A2A agonism also occurs bilaterally. Therefore, ATL313 activates A2A receptors within the spinal cord altering the mechanisms leading to central sensitization.
The animals following unilateral CCI surgery of the left sciatic nerve, as noted above, have allodynia in both hind paws. For simplicity all graphs show left hind paw responses only, as the right hind paw had equivalent responses.

CCI-induced allodynia [2] = experiment: Blockade and reversal of A2A agonist (ATL313) by antagonist ZM241385 in the CCI model, von Frey testing; type: in vivo, male Sprague-Dawley rats
Method: as §1
CCI surgery and indwelling intrathecal catheters were implanted in male Sprague-Dawley rats (325-350 g, n=6/group). 10-14 days after surgery, when the allodynia is stable, an A2A antagonist (ZM241385, 10 uM, Tocris Bioscience) or vehicle was co-administered with ATL313 or vehicle. von Frey testing was done before surgery, before intrathecal injections, and 1, 2, 3, 4, 6, and 24 h after injection.
In a separate group of animals, ATL313 (1 uM) was administered 10-14 days after CCI surgery. One week after ATL313 (1 uM, i.t.) administration, ZM241385 (10 uM) or equivolume vehicle was administered intrathecally. von Frey testing was done 1, 2, 3, 4, 6 & 24 h after injection.

[3] = single intrathecal injection, 1 uM, given 10-14 days after CCI surgery, P<0.05

COC(=O)N1CCC(CC#Cc2nc(N)c3ncn(C4OC(C(=O)NC5CC5)C(O)C4O)c3n2)CC1 (centres unmarked) [ATL313, 4-{3-[6-amino-9-(5-cyclopropylcarbamoyl-3,4-dihydroxy-tetrahydro-furan-2-yl)-9H-purin-2-yl]-prop-2-ynyl}-piperidine-1-carboxylic acid methyl ester]
Effect on CCI-induced allodynia (CCI-induced allodynia [1]; 0.1 uM in 5 uL intrathecal, compared to saline-injected animals, P>0.05): no significant impact on CCI-induced allodynia
Analgesic effect in sham-operated animals (CCI-induced allodynia [1]; sham-operated animals, intrathecal, P>0.05): no effect on sham-operated animals
Duration of reversal of allodynia (CCI-induced allodynia [1]; [3]): at least 4 weeks
Effect on CCI-induced allodynia (mechanical sensitivity to von Frey filaments) (CCI-induced allodynia [1]; [3]): partial reversal of the allodynia

Nc1nc(C#CCC2CCN(C(=O)OCC3CC3)CC2)nc2c1ncn2C1OC(C(=O)NC2CC2)C(O)C1O (centres unmarked) [Compound C, 4-{3-[6-Amino-9-(5-cyclopropylcarbamoyl-3,4-dihydroxy-tetrahydro-furan-2-yl)-9H-purin-2-yl]-prop-2-ynyl}-piperidine-1-carboxylic acid cyclopropylmethyl ester]
Effect on CCI-induced allodynia relative to ATL313 and CGS21680 (CCI-induced allodynia [1]; intrathecal): ranged between ATL313 (1 μM) and CGS21680 (1 μM)

COc1ccccc1OC(=O)N1CCC(CC#Cc2nc(N)c3ncn(C4OC(C(=O)NC5CC5)C(O)C4O)c3n2)CC1 (centres unmarked) [Compound A, 4-{3-[6-Amino-9-(5-cyclopropylcarbamoyl-3,4-dihydroxy-tetrahydro-furan-2-yl)-9H-purin-2-yl]-prop-2-ynyl}-piperidine-1-carboxylic acid 2-methoxyphenyl ester]
Effect on CCI-induced allodynia relative to ATL313 and CGS21680 (CCI-induced allodynia [1]; intrathecal): ranged between ATL313 (1 μM) and CGS21680 (1 μM)

Nc1nc(C#CCC2CCN(C(=O)OC3CCC3)CC2)nc2c1ncn2C1OC(C(=O)NC2CC2)C(O)C1O (centres unmarked) [Compound B, 4-{3-[6-Amino-9-(5-cyclopropylcarbamoyl-3,4-dihydroxy-tetrahydro-furan-2-yl)-9H-purin-2-yl]-prop-2-ynyl}-piperidine-1-carboxylic acid cyclobutyl ester]
Effect on CCI-induced allodynia relative to ATL313 and CGS21680 (CCI-induced allodynia [1]; intrathecal): ranged between ATL313 (1 μM) and CGS21680 (1 μM)

Nc1nc(NCCc2ccc(O)cc2)nc2nc(-c3ccco3)nn12 [ZM241385]
Effect of co-administered antagonist on the ATL313 effect on CCI-induced allodynia (CCI-induced allodynia [2]; ZM241385 10 uM co-administered intrathecally with ATL313 1 uM, 10-14 days after CCI surgery, P<0.0001): abolishes the effect of ATL313 on the CCI-induced allodynia
Effect of antagonist on the established reversal of allodynia (CCI-induced allodynia [2]; ZM241385 10 uM intrathecal, one week after ATL313 1 uM i.t.): had no effect on reversal of the allodynia induced by the previous ATL313 administration
Effect of antagonist alone on CCI-induced allodynia (CCI-induced allodynia [2]; ZM241385 10 uM intrathecal, without agonist, P>0.05): has no effect on the CCI-induced allodynia

CCNC(=O)[C@H]1O[C@@H](n2cnc3c(N)nc(NCCc4ccc(CCC(=O)O)cc4)nc32)[C@H](O)[C@@H]1O [CGS21680, 3-[4-[2-[[6-amino-9-[(2R,3R,4S,5S)-5-(ethylcarbamoyl)-3,4-dihydroxy-oxolan-2-yl]purin-2-yl]amino]ethyl]phenyl]propanoic acid, reference compound]
Reversal of CCI-induced allodynia compared with ATL313 (CCI-induced allodynia [1]; intrathecal, at a 10-fold higher dose than that of ATL313, P<0.001): comparable reversal of CCI-induced allodynia, in both duration and intensity
